# Reference: patent publication US20220317138A1, “METHODS FOR DETERMINING THE CONCENTRATION OF A CARBAPENEM ANTIBIOTIC IN A BIOLOGICAL SAMPLE” (priority 2019, published 2022)
# Read-outs that look alike come from different tables or passages of the source.
# How the values were obtained:
# Assay type in all cases: biochemical
# [1] = target: P99 beta-lactamase (class C) (Enterobacter cloacae, UniProt P05364); details: nitrocefin reporter
# [2] = target: T1, beta-lactamase class D OXA-48 (Klebsiella pneumoniae, UniProt Q6XEC0); details: for Accuracy <> (average) / [Meropenem] <> (average): average of 5 replicates
# Text: The specificity (or selectivity) of the method according to an embodiment of the invention is defined as the ability of the method to measure the concentration of a carbapenem antibiotic (such as meropenem) in presence of an excess of another beta-lactam antibiotic (second beta-lactam) currently used in ICUs (see Table 4).
# To determine the specificity of the method illustrating the invention for carbapenem antibiotics, in particular meropenem, versus other beta-lactam antibiotics, stock-solutions of second beta-lactam antibiotics were prepared in water.
# An excess of a second beta-lactam concentration of up to 10 times the concentration of meropenem was used.
# Target sequence in this assay (Q6XEC0 23-265 limits assumed): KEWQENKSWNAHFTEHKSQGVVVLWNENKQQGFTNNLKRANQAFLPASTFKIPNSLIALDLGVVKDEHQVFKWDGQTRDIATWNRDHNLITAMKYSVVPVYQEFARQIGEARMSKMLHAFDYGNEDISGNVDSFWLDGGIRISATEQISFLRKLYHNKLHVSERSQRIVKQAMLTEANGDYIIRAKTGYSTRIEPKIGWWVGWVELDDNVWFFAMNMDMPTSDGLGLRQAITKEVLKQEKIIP
# [3] = target: T1, beta-lactamase class D OXA-48; details: for Average [meropenem]: average of three replicates
# [4] = tested on: Per2 beta-lactamase (class A); test: Screening of beta-lactamases by competition, nitrocefin as reporter substrate
# [5] = tested on: AmpCHD beta-lactamase (class C); test: as above
# [6] = target: T1, beta-lactamase class D OXA-48; details: calibration curves FIG. 2, FIG. 3
# Target sequence in this assay (Q6XEC0 23-265 limits assumed): as above
# [7] = Meropenem 1.2 mg/L, second β-lactam 10.0 mg/L (8.4 times excess)
# [8] = Meropenem 20.0 mg/L, second β-lactam 200.0 mg/L (10 times excess)
# [9] = second drug alone in ultrafiltrated serum at 10 times recommended blood concentration, […]
# [10] = second drug alone in ultrafiltrated serum at 10 times recommended blood concentration, result expressed as meropenem concentration, theoretically zero
# [11] = second drug alone in ultrafiltrated serum at 10 times recommended blood concentration, result expressed as meropenem concentration, theoretically zero, replicate 1
# [12] = second drug alone in ultrafiltrated serum at 10 times recommended blood concentration, result expressed as meropenem concentration, theoretically zero, replicate 2
# [13] = second drug alone in ultrafiltrated serum at 10 times recommended blood concentration, result expressed as meropenem concentration, theoretically zero, replicate 3
# Sequence of P99 beta-lactamase (class C) (P05364 21-381): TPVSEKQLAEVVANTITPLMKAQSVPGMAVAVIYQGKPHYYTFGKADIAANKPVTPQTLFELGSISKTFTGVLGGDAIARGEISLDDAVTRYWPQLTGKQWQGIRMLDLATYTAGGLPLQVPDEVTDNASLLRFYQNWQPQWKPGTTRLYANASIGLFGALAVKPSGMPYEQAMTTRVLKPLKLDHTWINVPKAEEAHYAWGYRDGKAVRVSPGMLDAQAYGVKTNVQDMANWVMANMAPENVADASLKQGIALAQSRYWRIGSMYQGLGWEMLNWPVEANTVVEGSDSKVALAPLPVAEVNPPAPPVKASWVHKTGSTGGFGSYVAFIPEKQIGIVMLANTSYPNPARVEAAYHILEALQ
molecule,measurement,setting,value
CC(C)(O/N=C(\C(=O)N[C@@H]1C(=O)N2C(C(=O)[O-])=C(C[n+]3ccccc3)CS[C@H]12)c1csc(N)n1)C(=O)O [Ceftazidime],"hydrolysis rate symbol, (Vmax/V0)-1",[1],+ (0.1-1)
same,Accuracy <> (average),[2]; [7],111%
same,[Meropenem] <> (average),[2]; [7],1.3 mg/L
same,Accuracy Replicate 1,[2]; [7],108%
same,[Meropenem] Replicate 1,[2]; [7],1.3 mg/L
same,Accuracy Replicate 2,[2]; [7],105%
same,[Meropenem] Replicate 2,[2]; [7],1.2 mg/L
same,Accuracy Replicate 3,[2]; [7],108%
same,[Meropenem] Replicate 3,[2]; [7],1.3 mg/L
same,Accuracy Replicate 4,[2]; [7],112%
same,[Meropenem] Replicate 4,[2]; [7],1.3 mg/L
same,Accuracy Replicate 5,[2]; [7],118%
same,[Meropenem] Replicate 5,[2]; [7],1.4 mg/L
same,Accuracy <> (average),[2]; [8],100%
same,[Meropenem] <> (average),[2]; [8],20.1 mg/L
same,Accuracy Replicate 1,[2]; [8],102%
same,[Meropenem] Replicate 1,[2]; [8],20.6 mg/L
same,Accuracy Replicate 2,[2]; [8],97%
same,[Meropenem] Replicate 2,[2]; [8],19.6 mg/L
same,Accuracy Replicate 3,[2]; [8],100%
same,[Meropenem] Replicate 3,[2]; [8],20.1 mg/L
same,Accuracy Replicate 4,[2]; [8],100%
same,[Meropenem] Replicate 4,[2]; [8],20.2 mg/L
same,Accuracy Replicate 5,[2]; [8],99%
same,[Meropenem] Replicate 5,[2]; [8],20.0 mg/L
CO/N=C(\C(=O)N[C@@H]1C(=O)N2C(C(=O)O)=C(CSc3nc(=O)c(O)nn3C)CS[C@H]12)c1csc(N)n1 [Ceftria ®],"hydrolysis rate symbol, (Vmax/V0)-1",[1],+++ (10-100)
same,Accuracy <> (average),[2]; [7],112%
same,[Meropenem] <> (average),[2]; [7],1.3 mg/L
same,Accuracy Replicate 1,[2]; [7],105%
same,[Meropenem] Replicate 1,[2]; [7],1.2 mg/L
same,Accuracy Replicate 2,[2]; [7],111%
same,[Meropenem] Replicate 2,[2]; [7],1.3 mg/L
same,Accuracy Replicate 3,[2]; [7],112%
same,[Meropenem] Replicate 3,[2]; [7],1.3 mg/L
same,Accuracy Replicate 4,[2]; [7],116%
same,[Meropenem] Replicate 4,[2]; [7],1.3 mg/L
same,Accuracy Replicate 5,[2]; [7],113%
same,[Meropenem] Replicate 5,[2]; [7],1.3 mg/L
same,Accuracy <> (average),[2]; [8],95%
same,[Meropenem] <> (average),[2]; [8],21.1 mg/L
same,Accuracy Replicate 1,[2]; [8],100%
same,[Meropenem] Replicate 1,[2]; [8],22.3 mg/L
same,Accuracy Replicate 2,[2]; [8],96%
same,[Meropenem] Replicate 2,[2]; [8],21.4 mg/L
same,Accuracy Replicate 3,[2]; [8],96%
same,[Meropenem] Replicate 3,[2]; [8],21.4 mg/L
same,Accuracy Replicate 4,[2]; [8],90%
same,[Meropenem] Replicate 4,[2]; [8],20.0 mg/L
same,Accuracy Replicate 5,[2]; [8],91%
same,[Meropenem] Replicate 5,[2]; [8],20.4 mg/L
Cc1ncc2n1-c1ccc(Cl)cc1C(c1ccccc1F)=NC2 [Midazolam Braun],[meropenem] (mg/L) Replicates 1,[3],-0.07 mg/L
same,[meropenem] (mg/L) Replicates 2,[3],-0.09 mg/L
same,[meropenem] (mg/L) Replicates 3,[3],-0.06 mg/L
same,Average [meropenem],[3]; [9],-0.07 mg/L
Cc1[nH]c(=O)c(C#N)cc1-c1ccncc1 [Milrinone],Average [meropenem],[3]; [10],0.09 mg/L
same,[meropenem] (mg/L) Replicates 1,[3]; [11],0.14 mg/L
same,[meropenem] (mg/L) Replicates 2,[3]; [12],0.06 mg/L
same,[meropenem] (mg/L) Replicates 3,[3]; [13],0.06 mg/L
CN1CC[C@]23c4c5ccc(O)c4O[C@H]2[C@@H](O)C=C[C@H]3[C@H]1C5 [Morphine],Average [meropenem],[3]; [10],-0.13 mg/L
same,[meropenem] (mg/L) Replicates 1,[3]; [11],-0.12 mg/L
same,[meropenem] (mg/L) Replicates 2,[3]; [12],-0.15 mg/L
same,[meropenem] (mg/L) Replicates 3,[3]; [13],-0.10 mg/L
COc1ccc(C[C@@H]2c3cc(OC)c(OC)cc3CC[N@+]2(C)CCC(=O)OCCCCCOC(=O)CC[N@@+]2(C)CCc3cc(OC)c(OC)cc3[C@H]2Cc2ccc(OC)c(OC)c2)cc1OC [Nimbex],Average [meropenem],[3]; [10],-0.03 mg/L
same,[meropenem] (mg/L) Replicates 1,[3]; [11],0.01 mg/L
same,[meropenem] (mg/L) Replicates 2,[3]; [12],-0.04 mg/L
same,[meropenem] (mg/L) Replicates 3,[3]; [13],-0.08 mg/L
NC[C@H](O)c1ccc(O)c(O)c1 [Noradrenaline],Average [meropenem],[3]; [10],-0.11 mg/L
same,[meropenem] (mg/L) Replicates 1,[3]; [11],-0.12 mg/L
same,[meropenem] (mg/L) Replicates 2,[3]; [12],-0.12 mg/L
same,[meropenem] (mg/L) Replicates 3,[3]; [13],-0.08 mg/L
COc1ccnc(C[S+]([O-])c2nc3cc(OC(F)F)ccc3[nH]2)c1OC (centres unmarked) [Pantomed],[meropenem] (mg/L) Replicates 1,[3],0.02 mg/L
same,[meropenem] (mg/L) Replicates 2,[3],0.01 mg/L
same,[meropenem] (mg/L) Replicates 3,[3],-0.05 mg/L
same,Average [meropenem],[3]; [9],-0.01 mg/L
Cc1onc(-c2ccccc2)c1C(=O)N[C@@H]1C(=O)N2[C@@H]1SC(C)(C)[C@@H]2C(=O)O [Penstapho ®],"hydrolysis rate symbol, (Vmax/V0)-1",[4],++ (1-10)
same,"hydrolysis rate symbol, (Vmax/V0)-1",[1],++++ (>100)
same,Accuracy <> (average),[2]; [7],119%
same,[Meropenem] <> (average),[2]; [7],1.4 mg/L
same,Accuracy Replicate 1,[2]; [7],115%
same,[Meropenem] Replicate 1,[2]; [7],1.3 mg/L
same,Accuracy Replicate 2,[2]; [7],123%
same,[Meropenem] Replicate 2,[2]; [7],1.4 mg/L
same,Accuracy Replicate 3,[2]; [7],121%
same,[Meropenem] Replicate 3,[2]; [7],1.4 mg/L
same,Accuracy Replicate 4,[2]; [7],122%
same,[Meropenem] Replicate 4,[2]; [7],1.4 mg/L
same,Accuracy Replicate 5,[2]; [7],116%
same,[Meropenem] Replicate 5,[2]; [7],1.3 mg/L
same,Accuracy <> (average),[2]; [8],103%
same,[Meropenem] <> (average),[2]; [8],22.9 mg/L
same,Accuracy Replicate 1,[2]; [8],98%
same,[Meropenem] Replicate 1,[2]; [8],21.8 mg/L
same,Accuracy Replicate 2,[2]; [8],104%
same,[Meropenem] Replicate 2,[2]; [8],23.2 mg/L
same,Accuracy Replicate 3,[2]; [8],104%
same,[Meropenem] Replicate 3,[2]; [8],23.1 mg/L
same,Accuracy Replicate 4,[2]; [8],107%
same,[Meropenem] Replicate 4,[2]; [8],23.8 mg/L
same,Accuracy Replicate 5,[2]; [8],102%
same,[Meropenem] Replicate 5,[2]; [8],22.7 mg/L
same,"hydrolysis rate symbol, (Vmax/V0)-1",[5],++ (1-10)
C=CC[C@@H]1/C=C(\C)C[C@H](C)C[C@H](OC)[C@H]2O[C@@](O)(C(=O)C(=O)N3CCCC[C@H]3C(=O)O[C@H](/C(C)=C/[C@@H]3CC[C@@H](O)[C@H](OC)C3)[C@H](C)[C@@H](O)CC1=O)[C@H](C)C[C@@H]2OC.O [Prograft],[meropenem] (mg/L) Replicates 1,[3],-0.07 mg/L
same,[meropenem] (mg/L) Replicates 2,[3],-0.06 mg/L
same,[meropenem] (mg/L) Replicates 3,[3],-0.02 mg/L
same,Average [meropenem],[3]; [9],-0.05 mg/L
COC(=O)C1=C(C)NC(C)=C(C(=O)OCCN(C)Cc2ccccc2)C1c1cccc([N+](=O)[O-])c1 (centres unmarked) [Rydene],Average [meropenem],[3]; [10],0.04 mg/L
same,[meropenem] (mg/L) Replicates 1,[3]; [11],0.06 mg/L
same,[meropenem] (mg/L) Replicates 2,[3]; [12],0.00 mg/L
same,[meropenem] (mg/L) Replicates 3,[3]; [13],0.06 mg/L
CC(C)(C)NCC(O)c1ccc(O)c(CO)c1 (centres unmarked) [Salbutamol],Average [meropenem],[3]; [10],0.09 mg/L
same,[meropenem] (mg/L) Replicates 1,[3]; [11],0.16 mg/L
same,[meropenem] (mg/L) Replicates 2,[3]; [12],0.07 mg/L
same,[meropenem] (mg/L) Replicates 3,[3]; [13],0.05 mg/L
C[C@H]1C[C@@H]2[C@H]([C@@H](O)C[C@@]3(C)[C@H]2CC[C@]3(O)C(=O)COC(=O)CCC(=O)O)[C@@]2(C)C=CC(=O)C=C12 [Solu-Medrol],Average [meropenem],[3]; [10],0.01 mg/L
same,[meropenem] (mg/L) Replicates 1,[3]; [11],-0.01 mg/L
same,[meropenem] (mg/L) Replicates 2,[3]; [12],0.02 mg/L
same,[meropenem] (mg/L) Replicates 3,[3]; [13],0.01 mg/L
C[C@]12CCC(=O)C=C1CC[C@@H]1[C@@H]2[C@@H](O)C[C@@]2(C)[C@H]1CC[C@]2(O)C(=O)COC(=O)CCC(=O)O [Solu-cortef],Average [meropenem],[3]; [10],-0.03 mg/L
same,[meropenem] (mg/L) Replicates 1,[3]; [11],-0.10 mg/L
same,[meropenem] (mg/L) Replicates 2,[3]; [12],0.02 mg/L
same,[meropenem] (mg/L) Replicates 3,[3]; [13],0.00 mg/L
CCC1(CC)C(=O)NC(=S)NC1=O [Thiobarbital],Average [meropenem],[3]; [10],0.10 mg/L
same,[meropenem] (mg/L) Replicates 1,[3]; [11],0.12 mg/L
same,[meropenem] (mg/L) Replicates 2,[3]; [12],0.11 mg/L
same,[meropenem] (mg/L) Replicates 3,[3]; [13],0.09 mg/L
C[C@@H](c1ncncc1F)[C@](O)(Cn1cncn1)c1ccc(F)cc1F [Voriconazole],Average [meropenem],[3]; [10],0.01 mg/L
same,[meropenem] (mg/L) Replicates 1,[3]; [11],0.00 mg/L
same,[meropenem] (mg/L) Replicates 2,[3]; [12],-0.06 mg/L
same,[meropenem] (mg/L) Replicates 3,[3]; [13],0.10 mg/L
C[C@@H](O)[C@H]1C(=O)N2C(C(=O)O)=C(S[C@@H]3CN[C@H](CNS(N)(=O)=O)C3)[C@H](C)[C@H]12 [doripenem],determining the concentration using OXA-48,[6],possible
C[C@@H](O)[C@H]1C(=O)N2C(C(=O)O)=C(S[C@@H]3CN[C@H](C(=O)Nc4cccc(C(=O)O)c4)C3)[C@H](C)[C@H]12 [ertapenem],determining the concentration using OXA-48,[6],possible
Actrapid,[meropenem] (mg/L) Replicates 1,[3],0.04 mg/L
same,[meropenem] (mg/L) Replicates 2,[3],0.04 mg/L
same,[meropenem] (mg/L) Replicates 3,[3],0.06 mg/L
same,Average [meropenem],[3]; [9],0.05 mg/L
protamine,[meropenem] (mg/L) Replicates 1,[3],0.64 mg/L
same,[meropenem] (mg/L) Replicates 2,[3],0.69 mg/L
same,[meropenem] (mg/L) Replicates 3,[3],0.72 mg/L
same,interference with the method,[3],excepted for protamine
same,Average [meropenem],[3]; [9],0.68 mg/L
